Test results published in paper PMC12287522 (Scientific Reports, 2025).

Tests used:
[1] = test system: human colorectal cancer cell line (HCT116); assay: MTT assay, HCT116 cell line; type: cell-based; details: for IC50: Homo sapiens, HCT-116, read-out: Anticancer activity (IC50) HCT116; for anticancer action against HCT116 (in words): SAR discussion
[2] = test system: human lung adenocarcinoma cell line (A549); assay: MTT assay, A549 cell line; type: cell-based; details: SAR discussion

SMILES	IC50 [1] [µM]	inhibitory potential against A549 (in words) [2]	anticancer action against HCT116 (in words) [1]
O=Cc1cccc(NC(=O)Cn2cc(COc3ncnc4[nH]cnc34)nn2)c1 [5b, 2-(4-(((9 H-purin-6-yl)oxy)methyl)-1 H-1,2,3-triazol-1-yl)-N-(3-formylphenyl)acetamide]	15.6 ± 0.45		
Cc1cncc(NC(=O)Cn2cc(COc3ncnc4[nH]cnc34)nn2)c1 [5a, 2-(4-(((9 H-purin-6-yl)oxy)methyl)-1 H-1,2,3-triazol-1-yl)-N-(5-methylpyridin-3-yl)acetamide]	6.23 ± 0.23		
COc1cccc(NC(=O)Cn2cc(COc3ncnc4[nH]cnc34)nn2)c1 [5 g, 2-(4-(((9 H-purin-6-yl)oxy)methyl)-1 H-1,2,3-triazol-1-yl)-N-(3-methoxyphenyl)acetamide]	> 100		did not exhibit anticancer action
COc1ccc(CNC(=O)Cn2cc(COc3ncnc4[nH]cnc34)nn2)cc1 [5k, 2-(4-(((9 H-purin-6-yl)oxy)methyl)-1 H-1,2,3-triazol-1-yl)-N-(4-methoxybenzyl)acetamide]			did not exhibit anticancer action
Cc1cccc(NC(=O)Cn2cc(COc3ncnc4[nH]cnc34)nn2)c1 [5c, 2-(4-(((9 H-purin-6-yl)oxy)methyl)-1 H-1,2,3-triazol-1-yl)-N-(m-tolyl)acetamide]		significantly reduced	
O=C(Cn1cc(COc2ncnc3[nH]cnc23)nn1)Nc1ccc(O)cc1 [5 h, 2-(4-(((9 H-purin-6-yl)oxy)methyl)-1 H-1,2,3-triazol-1-yl)-N-(4-hydroxyphenyl)acetamide]	12.3 ± 0.52		moderately inhibited
Cc1ccc(NC(=O)Cn2cc(COc3ncnc4[nH]cnc34)nn2)c(C)c1 [5d, 2-(4-(((9 H-purin-6-yl)oxy)methyl)-1 H-1,2,3-triazol-1-yl)-N-(2,4-dimethylphenyl)acetamide]			did not exhibit anticancer action

Further lines, with some results ahead:

IC50 [1] [µM]	SMILES	inhibitory potential against A549 (in words) [2]	anticancer action against HCT116 (in words) [1]
22.6 ± 0.38	O=C(Cn1cc(COc2ncnc3[nH]cnc23)nn1)NCc1ccc(Cl)cc1 [5j, 2-(4-(((9 H-purin-6-yl)oxy)methyl)-1 H-1,2,3-triazol-1-yl)-N-(4-chlorobenzyl)acetamide]		
6.11 ± 0.29	O=C(Cn1cc(COc2ncnc3[nH]cnc23)nn1)Nc1ccc(F)c(Cl)c1 [5e, 2-(4-(((9 H-purin-6-yl)oxy)methyl)-1 H-1,2,3-triazol-1-yl)-N-(3-chloro-4-fluorophenyl)acetamide]		
7.88 ± 0.6	O=C(Cn1cc(COc2ncnc3[nH]cnc23)nn1)NCc1ccc(O)cc1 [5i, 2-(4-(((9 H-purin-6-yl)oxy)methyl)-1 H-1,2,3-triazol-1-yl)-N-(4-hydroxybenzyl)acetamide]	significantly reduced	moderately inhibited
7.27 ± 0.39	COc1cccc2c1C(=O)c1c(O)c3c(c(O)c1C2=O)C[C@@](O)(C(=O)CO)C[C@@H]3O[C@H]1C[C@H](N)[C@H](O)[C@H](C)O1 [DXN, doxorubicin, reference compound]		
13.9 ± 0.19	O=C(Cn1cc(COc2ncnc3[nH]cnc23)nn1)Nc1ccc([N+](=O)[O-])cc1 [5f, 2-(4-(((9 H-purin-6-yl)oxy)methyl)-1 H-1,2,3-triazol-1-yl)-N-(4-nitrophenyl)acetamide]	significantly reduced	
